Each structure is given as a SMILES string.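 Each compound was tested at five concentrations against cells in 96-well plates for 48 hours. GI50: concentration for 50% inhibition of growth.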 Active and inactive are the calls of the source. No stated cut-off is given here; in the data, active = GI50 up to about 1.1 µM and inactive = higher.

Consider nine molecules from ChEMBL document CHEMBL1201862, “PubChem BioAssay data set” (2004).

Test systems include UACC-257; HCT-15; CAKI-1; UO-31; HOP-92; SK-MEL-2; U-251; SNB-19; A498; OVCAR-3; HT-29; SF-295; HOP-62; OVCAR-4; OVCAR-8; Malme-3M; M14; NCI-H522; EKVX; SR.
Common to all, as to assay: inhibition of tumour cell growth, NCI panel, 48 h

For `C=C1CC(OC)(C(OC)C(=O)N[C@H]2OCO[C@H]3C2O[C@H](C[C@@H](COC)OC)C(C)(C)C3OC)O[C@H](C)[C@@H]1C` (stereo not given in full), the GI50 is 1.1 µM (active) with UACC-257; 0.8 µM in the experiment with HCT-15; 0.916 µM (active) in the experiment with CAKI-1; 0.759 µM (active) in the experiment on UO-31; 0.521 µM (active) in the experiment with HOP-92; 1.15 µM (inactive) in the experiment on SK-MEL-2. The GI50 was 0.918 µM (active) in the experiment with U-251; 0.611 µM (active) in the experiment on SNB-19; 1.03 µM (active) in the experiment with A498; 0.755 µM (active) in the experiment with OVCAR-3; 0.491 µM (active) in the experiment on HT-29; 0.851 µM (active) with SF-295. The GI50 in the experiment on HOP-62 was 1.04 µM (active); in the experiment on OVCAR-4, 0.733 µM (active); in the experiment on OVCAR-8, 0.861 µM (active).

As to `O=C1C2c3[nH]c4ccccc4c3C3CCSCC3C2C(=O)N1c1ccccc1` (stereo not given), the GI50 was > 100 µM (inactive) in the experiment with UACC-257; greater than 100 µM in the experiment with HCT-15; > 100 µM (inactive) with CAKI-1; > 100 µM (inactive) in the experiment on UO-31; > 100 µM (inactive) with HOP-92; > 100 µM (inactive) in the experiment with SK-MEL-2. Besides, the GI50 with U-251, with SNB-19, with A498, in the experiment with OVCAR-3, with HT-29 and with Malme-3M was > 100 µM (inactive) in each case. Also, the GI50 with SF-295, in the experiment on HOP-62, in the experiment with M14, in the experiment with NCI-H522, in the experiment on OVCAR-4 and with OVCAR-8 was > 100 µM (inactive) throughout. Further, the GI50 in the experiment with EKVX was > 100 µM (inactive).

On to `N#Cc1c(-c2ccccc2)c(CN2CCCCC2)c(=O)n2c1[nH]c1ccccc12`, for which the GI50 is 42 µM (inactive) with UACC-257; 32.6 µM in the experiment on HCT-15; 26.3 µM (inactive) in the experiment on CAKI-1; 26.7 µM (inactive) in the experiment with UO-31; 37.3 µM (inactive) with SK-MEL-2; 27.1 µM (inactive) in the experiment on U-251. For the same molecule, the GI50 is 25.9 µM (inactive) with SNB-19; 30.4 µM (inactive) in the experiment with A498; 20.4 µM (inactive) in the experiment on OVCAR-3; 62.2 µM (inactive) in the experiment on Malme-3M; 36.8 µM (inactive) with SF-295; 20.7 µM (inactive) in the experiment on HOP-62. In addition, the GI50 in the experiment on M14 is 30.1 µM (inactive); with NCI-H522, 24.3 µM (inactive); with OVCAR-4, 46.3 µM (inactive); in the experiment with OVCAR-8, 30.3 µM (inactive).

Take `CC(=O)O[C@H]1CC[C@@]2(C)[C@H](CC[C@@H]3[C@@H]2CC[C@]2(C)[C@@H](c4ccc(=O)oc4)C[C@H]4O[C@]342)C1`: the GI50 is 1.06 µM (active) with UACC-257; 1.08 µM in the experiment on HCT-15; 0.397 µM (active) with CAKI-1; 0.791 µM (active) in the experiment on UO-31; 0.92 µM (active) in the experiment on HOP-92; 2.7 µM (inactive) in the experiment on SK-MEL-2. In addition, the GI50 in the experiment on U-251 is 1.02 µM (active); with SNB-19 it was 1.82 µM (inactive); in the experiment with A498, 0.69 µM (active); with OVCAR-3, 0.338 µM (active); in the experiment with HT-29, 1.77 µM (inactive); in the experiment on Malme-3M, 0.571 µM (active). The GI50 in the experiment with SF-295 is 0.515 µM (active); in the experiment with HOP-62, 0.521 µM (active); in the experiment on NCI-H522 it was 0.327 µM (active); in the experiment with OVCAR-4, 0.675 µM (active); with OVCAR-8, 0.509 µM (active); in the experiment on EKVX, 0.646 µM (active).

As to `C=C(/C=C/C=C(/CCC=C(C)C)COC(C)=O)[C@@H]1CC[C@]2([C@H](CCCO)/C(=C(/C)C=O)CC[C@]2(C)O)[C@@H]1O`, the GI50 was 17.7 µM (inactive) in the experiment with UACC-257; 14.5 µM with HCT-15; 3.05 µM (inactive) in the experiment with CAKI-1; 12.7 µM (inactive) in the experiment with UO-31; < 0.01 µM (active) in the experiment with HOP-92; 17.9 µM (inactive) with SK-MEL-2. Besides, the GI50 with U-251 is 15 µM (inactive); in the experiment on SNB-19, 16.1 µM (inactive); in the experiment with HT-29 it was 14.8 µM (inactive); in the experiment with Malme-3M, 0.0429 µM (active); with SF-295 it was 0.973 µM (active); with M14 it was 11 µM (inactive). The values for the GI50 in the experiment on NCI-H522, in the experiment on OVCAR-8 and with EKVX were 17.1 µM (inactive), 22.1 µM (inactive) and 18.1 µM (inactive), respectively.

As to `Cc1nc2ccccc2c(=O)n1CC(=O)O`, the GI50 in the experiment on UACC-257 is > 100 µM (inactive); in the experiment with HCT-15 it was greater than 100 µM; in the experiment with CAKI-1, > 100 µM (inactive); in the experiment with UO-31, > 100 µM (inactive); in the experiment on HOP-92 it was > 100 µM (inactive); in the experiment with SK-MEL-2, > 100 µM (inactive). The GI50 in the experiment with U-251, in the experiment with SNB-19, in the experiment on A498, in the experiment on OVCAR-3, in the experiment on HT-29 and in the experiment with Malme-3M was > 100 µM (inactive) each time. The GI50 with SF-295, with HOP-62, in the experiment on NCI-H522, with OVCAR-4, in the experiment with OVCAR-8 and in the experiment with EKVX was > 100 µM (inactive) each time.

With `Cc1c(Cc2ccccc2)n(COCCCO)c(=O)[nH]c1=O`, the GI50 in the experiment on UACC-257 is > 100 µM (inactive); in the experiment with HCT-15 it was greater than 100 µM; in the experiment on CAKI-1 it was > 100 µM (inactive); in the experiment with UO-31 it was > 100 µM (inactive); with HOP-92, > 100 µM (inactive); in the experiment with SK-MEL-2 it was > 100 µM (inactive). The GI50 in the experiment with U-251, with SNB-19, in the experiment with A498, with OVCAR-3, with HT-29 and with Malme-3M was > 100 µM (inactive) in each case. Moreover, the GI50 with SF-295, with HOP-62, with M14, in the experiment with NCI-H522, in the experiment with OVCAR-4 and in the experiment with OVCAR-8 was > 100 µM (inactive) each time. The GI50 with EKVX was > 100 µM (inactive).

`CCOC(O)C(F)(F)F` (stereo not given): the GI50 is > 100 µM (inactive) in the experiment with UACC-257; greater than 100 µM with HCT-15; > 100 µM (inactive) with UO-31; > 100 µM (inactive) with HOP-92; > 100 µM (inactive) in the experiment with SR; > 100 µM (inactive) in the experiment on U-251. In addition, the GI50 with SNB-19, in the experiment with OVCAR-3, in the experiment on HT-29, in the experiment on SF-295, with M14 and in the experiment on OVCAR-8 was > 100 µM (inactive) in each case.

On to `Nc1ccc2c(c1)C1=NNC(=O)CC1C2` (stereo not given), for which the GI50 in the experiment on UACC-257 is > 100 µM (inactive); in the experiment on HCT-15 it was greater than 100 µM; in the experiment on CAKI-1, > 100 µM (inactive); with UO-31 it was > 100 µM (inactive); in the experiment on HOP-92 it was > 100 µM (inactive); in the experiment on SK-MEL-2, > 100 µM (inactive). The GI50 with U-251 was > 100 µM (inactive); in the experiment with SNB-19, > 100 µM (inactive); with A498, 60.4 µM (inactive); in the experiment on OVCAR-3, > 31.6 µM (inactive); in the experiment on HT-29, > 100 µM (inactive); in the experiment with Malme-3M, > 100 µM (inactive). The GI50 with SF-295 is > 100 µM (inactive); in the experiment with HOP-62, > 100 µM (inactive); in the experiment on NCI-H522, > 100 µM (inactive); with OVCAR-4, 47.8 µM (inactive); in the experiment on OVCAR-8 it was > 100 µM (inactive); in the experiment with EKVX it was > 100 µM (inactive).
